# Measured values as given in patent US11339128B2 (Firmenich Incorporated, priority 2014, dated 2022).
# Counter-ions that a name gives are not always drawn.
# Target: T1, T1R2/T1R3 taste receptor (Homo sapiens, UniProt Q7RTX0+Q8TE23)
# T1 sequence (Q8TE23 20-839): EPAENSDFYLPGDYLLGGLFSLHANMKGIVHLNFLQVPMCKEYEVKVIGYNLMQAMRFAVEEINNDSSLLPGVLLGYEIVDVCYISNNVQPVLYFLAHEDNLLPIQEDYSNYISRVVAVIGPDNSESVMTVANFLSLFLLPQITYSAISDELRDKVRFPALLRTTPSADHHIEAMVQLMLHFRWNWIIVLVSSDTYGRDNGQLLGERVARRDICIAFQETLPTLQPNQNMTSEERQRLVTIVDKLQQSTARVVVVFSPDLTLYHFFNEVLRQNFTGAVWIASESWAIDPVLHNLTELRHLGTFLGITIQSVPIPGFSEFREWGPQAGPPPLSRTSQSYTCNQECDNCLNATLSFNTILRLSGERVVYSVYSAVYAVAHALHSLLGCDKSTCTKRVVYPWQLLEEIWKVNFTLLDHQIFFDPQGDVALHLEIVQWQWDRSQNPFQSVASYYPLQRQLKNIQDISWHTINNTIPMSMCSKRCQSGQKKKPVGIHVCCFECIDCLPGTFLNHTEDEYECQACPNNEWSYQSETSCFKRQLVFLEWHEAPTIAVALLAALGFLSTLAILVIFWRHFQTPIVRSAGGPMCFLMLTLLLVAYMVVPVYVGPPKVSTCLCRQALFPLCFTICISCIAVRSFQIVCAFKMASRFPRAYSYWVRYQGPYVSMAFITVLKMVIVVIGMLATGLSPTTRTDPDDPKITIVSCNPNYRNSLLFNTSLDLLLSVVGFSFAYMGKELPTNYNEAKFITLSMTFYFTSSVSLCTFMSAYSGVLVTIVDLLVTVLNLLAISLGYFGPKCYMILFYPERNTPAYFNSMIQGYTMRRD
# T1 sequence (Q7RTX0 21-852): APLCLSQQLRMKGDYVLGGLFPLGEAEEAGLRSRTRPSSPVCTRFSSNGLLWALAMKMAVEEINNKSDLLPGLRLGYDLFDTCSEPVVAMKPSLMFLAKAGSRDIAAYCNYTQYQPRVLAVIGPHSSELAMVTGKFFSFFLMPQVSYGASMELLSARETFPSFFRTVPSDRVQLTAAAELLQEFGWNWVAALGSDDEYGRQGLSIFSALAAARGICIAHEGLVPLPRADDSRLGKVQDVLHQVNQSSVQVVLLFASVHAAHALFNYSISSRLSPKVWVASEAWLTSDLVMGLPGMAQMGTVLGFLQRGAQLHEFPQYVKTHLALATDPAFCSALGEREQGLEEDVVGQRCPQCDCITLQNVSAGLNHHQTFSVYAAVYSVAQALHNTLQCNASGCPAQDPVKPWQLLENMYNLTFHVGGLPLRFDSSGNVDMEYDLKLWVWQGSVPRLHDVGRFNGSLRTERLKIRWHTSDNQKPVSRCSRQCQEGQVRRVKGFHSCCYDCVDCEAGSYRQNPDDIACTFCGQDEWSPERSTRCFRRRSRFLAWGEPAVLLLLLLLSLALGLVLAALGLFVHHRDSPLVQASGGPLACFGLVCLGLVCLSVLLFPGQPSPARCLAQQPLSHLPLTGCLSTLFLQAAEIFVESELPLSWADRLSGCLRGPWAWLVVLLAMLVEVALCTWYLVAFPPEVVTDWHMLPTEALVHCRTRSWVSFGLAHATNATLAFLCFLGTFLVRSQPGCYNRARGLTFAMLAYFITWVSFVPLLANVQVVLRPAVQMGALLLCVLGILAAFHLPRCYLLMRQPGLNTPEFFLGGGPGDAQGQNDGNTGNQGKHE
# Test: Receptor-based assay: sweetener EC50 enhancement ratio with and without test compound
# Type: cell-based
# Conditions: for Sucrose Enhancement EC50 Ratio: sweetener sucrose; for Sucralose Enhancement EC50 Ratio: sweetener sucralose; for Fructose Enhancement EC50 Ratio: sweetener fructose
# Procedure, shortened: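 Sweetener (sucrose, sucralose, fructose) EC50 measured alone and with 1, 3, 10 or 50 μM test compound. Enhancement ratio = EC50 without/with compound; A = >1 to <10, B = 10–20, C = >20.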
SMILES,Sucrose Enhancement EC50 Ratio (1 μM test compound),Sucrose Enhancement EC50 Ratio (3 μM test compound),Sucrose Enhancement EC50 Ratio (10 μM test compound),Sucralose Enhancement EC50 Ratio (3 μM test compound),Sucralose Enhancement EC50 Ratio (10 μM test compound),Fructose Enhancement EC50 Ratio (10 μM test compound),Fructose Enhancement EC50 Ratio (50 μM test compound)
CO[C@H]1CC[C@H](Oc2cccc3nc(C)c(C(=O)O)c(N)c23)CC1 [Compound 105],A (an enhancement ratio of greater than 1 and less than 10),A (an enhancement ratio of greater than 1 and less than 10),C (an enhancement ratio greater than 20),,,,
Cc1nc2cccc(O[C@H]3CC[C@H](NC(=O)COCC4CCCC4)CC3)c2c(N)c1C(=O)O [Compound 338],A (an enhancement ratio of greater than 1 and less than 10),,,,,,
"Cc1cc(C)nc(N[C@H]2CC[C@H](Oc3cccc4nc(C)c(C(=O)O)c(N)c34)CC2)n1 [Compound 702, 4-Amino-5-((trans-4-((4,6-dimethylpyrimidin-2-yl)amino)cyclohexyl)oxy)-2-methylquinoline-3-carboxylic (HCl)]",A (an enhancement ratio of greater than 1 and less than 10),A (an enhancement ratio of greater than 1 and less than 10),A (an enhancement ratio of greater than 1 and less than 10),A (an enhancement ratio of greater than 1 and less than 10),B (an enhancement ratio from 10 to 20),,
Cc1nc2cccc(O[C@H]3CC[C@@H](O)CC3)c2c(N)c1C(=O)O [Compound 108],A (an enhancement ratio of greater than 1 and less than 10),A (an enhancement ratio of greater than 1 and less than 10),A (an enhancement ratio of greater than 1 and less than 10),,,,
Cc1nc2cccc(O[C@H]3CC[C@H](NC(=O)Cn4ccnc4)CC3)c2c(N)c1C(=O)O [Compound 325],A (an enhancement ratio of greater than 1 and less than 10),B (an enhancement ratio from 10 to 20),,A (an enhancement ratio of greater than 1 and less than 10),,,
CCOCC(=O)NC[C@H]1CC[C@H](Oc2cccc3nc(C)c(C(=O)O)c(N)c23)CC1 [Compound 603],A (an enhancement ratio of greater than 1 and less than 10),C (an enhancement ratio greater than 20),C (an enhancement ratio greater than 20),,C (an enhancement ratio greater than 20),,
COCC(=O)NC[C@H]1CC[C@H](Oc2cccc3nc(C)c(C(=O)O)c(N)c23)CC1 [Compound 601],A (an enhancement ratio of greater than 1 and less than 10),C (an enhancement ratio greater than 20),C (an enhancement ratio greater than 20),,,A (an enhancement ratio of greater than 1 and less than 10),
Cc1nc2cccc(O[C@H]3CC[C@H](C(C)(C)C)CC3)c2c(N)c1C(=O)O [Compound 104],A (an enhancement ratio of greater than 1 and less than 10),C (an enhancement ratio greater than 20),,,,,
CN[C@H](C(=O)N[C@H]1CC[C@H](Oc2cccc3nc(C)c(C(=O)O)c(N)c23)CC1)C(C)C [Compound 503],A (an enhancement ratio of greater than 1 and less than 10),A (an enhancement ratio of greater than 1 and less than 10),A (an enhancement ratio of greater than 1 and less than 10),,B (an enhancement ratio from 10 to 20),A (an enhancement ratio of greater than 1 and less than 10),A (an enhancement ratio of greater than 1 and less than 10)
Cc1nc2cccc(O[C@H]3CC[C@H](NC(=O)COCC4CC4)CC3)c2c(N)c1C(=O)O [Compound 313],A (an enhancement ratio of greater than 1 and less than 10),C (an enhancement ratio greater than 20),A (an enhancement ratio of greater than 1 and less than 10),,,,
